What was measured:
Test in all cases: post-emergence herbicidal activity, greenhouse
Format in all cases: in vivo
Soybean = conditions: Table II
Text: (§1) A good grade of top soil is placed in aluminum pans having holes in the bottom and compacted to a depth of 0.95 to 1.27 cm. from the top of the pan. A predetermined number of seeds of each of several dicotyledonous and monocotyledonous annual plant species and/or vegetative propagules for the perennial plant species are placed on the soil and pressed into the soil surface. The seeds and/or vegetative propagules are covered with soil and leveled. The pans are then placed on a sand bench in the greenhouse and watered from below as needed. After the plants reach the desired age (two to three weeks), each pan except for the control pans is removed individually to a spraying chamber and sprayed by means of an atomizer operating at a positive air pressure of approximately 1.46 kg/cm^2 absolute. The atomizer contains 6 ml. of a solution or suspension of the chemical. In that 6 ml., is an amount of a cyclohexanone emulsifying agent mixture to give a spray solution or suspension which contains about 0.4% by weight of the emulsifier. The spray solution or suspension contains a sufficient amount of the candidate chemical in order to give application rates corresponding to those set forth in the tables. The spray solution is prepared by taking an aliquot of a 1.0% by weight stock solution or suspension of the candidate chemical in an organic solvent such as acetone or tetrahydrofuran or in water. The emulsifying agent employed is a mixture comprising 35 weight percent butylamine dodecylbenzene sulfonate and 65 weight percent of a tall oil ethylene oxide condensate having about 11 moles of ethylene oxide per mole of tall oil. The pans are returned to the greenhouse and watered as before and the injury to the plants as compared to the control is observed at approximately two and four weeks as indicated in the tables under WAT and the results recorded. In some instances, the two-week observations are omitted.
(§2) The post-emergence herbicidal activity index used in Table I is as follows: […]

Hemp Sesbania = conditions: Table II
Text: as §1, §2

Quackgrass = conditions: Table I
Text: as §1, §2

Morningglory = test system: Morningglory
Text: as §1, §2

Panicum Spp = conditions: Table II
Text: as §1, §2

Crabgrass = conditions: Table II
Text: as §1, §2

Cocklebur = test system: Cocklebur
Text: as §1, §2

Sorghum = conditions: Table II
Text: as §1, §2

Velvetleaf = test system: Velvetleaf
Text: as §1, §2

Lambsquarters = test system: Lambsquarters
Text: as §1, §2

Johnsongrass = conditions: Table I
Text: as §1, §2

Smartweed = test system: Smartweed
Text: as §1, §2

Sugar Beet = conditions: Table II
Text: as §1, §2

Wild Buckwheat = conditions: Table II
Text: as §1, §2

Yellow Nutsedge = conditions: Table I
Text: as §1, §2

Wheat = conditions: Table II
Text: as §1, §2

Rice = conditions: Table II
Text: as §1, §2

Barnyardgrass = test system: Barnyardgrass
Text: as §1, §2

Downy Brome = test system: Downy Brome
Text: as §1, §2

N#CCN(CP(=O)(Oc1ccccc1)Oc1ccccc1)SSCCc1ccccc1 [XII, Phosphonic acid, [[(cyanomethyl)[(2-phenylethyl)dithio]amino]methyl]-, diphenyl ester]
post-emergence herbicidal activity index (Soybean; 2 WAT, 0.28 kg/h): 0 (0-24% control) | post-emergence herbicidal activity index (Soybean; 4 WAT, 1.12 kg/h): 0 (0-24% control) | post-emergence herbicidal activity index (Soybean; 4 WAT, 5.6 kg/h): 1 (25-49% control) | post-emergence herbicidal activity index (Hemp Sesbania; 2 WAT, 0.28 kg/h): 0 (0-24% control) | post-emergence herbicidal activity index (Hemp Sesbania; 4 WAT, 1.12 kg/h): 0 (0-24% control) | post-emergence herbicidal activity index (Hemp Sesbania; 4 WAT, 5.6 kg/h): 1 (25-49% control) | post-emergence herbicidal activity index (Quackgrass; 4 WAT, 5.6 kg/h): 0 (0-24% control) | post-emergence herbicidal activity index (Quackgrass; 4 WAT, 11.2 kg/h): 3 (75-99% control) | post-emergence herbicidal activity index (Morningglory; Table I, 4 WAT, 5.6 kg/h): 1 (25-49% control) | post-emergence herbicidal activity index (Morningglory; Table I, 4 WAT, 11.2 kg/h): 1 (25-49% control) | post-emergence herbicidal activity index (Morningglory; Table II, 2 WAT, 0.28 kg/h): 0 (0-24% control) | post-emergence herbicidal activity index (Morningglory; Table II, 4 WAT, 1.12 kg/h): 0 (0-24% control) | post-emergence herbicidal activity index (Morningglory; Table II, 4 WAT, 5.6 kg/h): 1 (25-49% control) | post-emergence herbicidal activity index (Panicum Spp; 2 WAT, 0.28 kg/h): 0 (0-24% control) | post-emergence herbicidal activity index (Panicum Spp; 4 WAT, 1.12 kg/h): 0 (0-24% control) | post-emergence herbicidal activity index (Panicum Spp; 4 WAT, 5.6 kg/h): 1 (25-49% control) | post-emergence herbicidal activity index (Crabgrass; 2 WAT, 0.28 kg/h): 0 (0-24% control) | post-emergence herbicidal activity index (Crabgrass; 4 WAT, 1.12 kg/h): 0 (0-24% control) | post-emergence herbicidal activity index (Crabgrass; 4 WAT, 5.6 kg/h): 3 (75-99% control) | post-emergence herbicidal activity index (Cocklebur; Table I, 4 WAT, 5.6 kg/h): 2 (50-74% control) | post-emergence herbicidal activity index (Cocklebur; Table I, 4 WAT, 11.2 kg/h): 4 (100% control) | post-emergence herbicidal activity index (Cocklebur; Table II, 2 WAT, 0.28 kg/h): 0 (0-24% control) | post-emergence herbicidal activity index (Cocklebur; Table II, 4 WAT, 1.12 kg/h): 0 (0-24% control) | post-emergence herbicidal activity index (Cocklebur; Table II, 4 WAT, 5.6 kg/h): 2 (50-74% control) | post-emergence herbicidal activity index (Sorghum; 2 WAT, 0.28 kg/h): 0 (0-24% control) | post-emergence herbicidal activity index (Sorghum; 4 WAT, 1.12 kg/h): 1 (25-49% control) | post-emergence herbicidal activity index (Sorghum; 4 WAT, 5.6 kg/h): 3 (75-99% control) | post-emergence herbicidal activity index (Velvetleaf; Table I, 4 WAT, 5.6 kg/h): 0 (0-24% control) | post-emergence herbicidal activity index (Velvetleaf; Table I, 4 WAT, 11.2 kg/h): 2 (50-74% control) | post-emergence herbicidal activity index (Velvetleaf; Table II, 2 WAT, 0.28 kg/h): 0 (0-24% control) | post-emergence herbicidal activity index (Velvetleaf; Table II, 4 WAT, 1.12 kg/h): 0 (0-24% control) | post-emergence herbicidal activity index (Velvetleaf; Table II, 4 WAT, 5.6 kg/h): 2 (50-74% control) | post-emergence herbicidal activity index (Lambsquarters; Table I, 4 WAT, 5.6 kg/h): 4 (100% control) | post-emergence herbicidal activity index (Lambsquarters; Table I, 4 WAT, 11.2 kg/h): 4 (100% control) | post-emergence herbicidal activity index (Lambsquarters; Table II, 2 WAT, 0.28 kg/h): 0 (0-24% control) | post-emergence herbicidal activity index (Lambsquarters; Table II, 4 WAT, 1.12 kg/h): 0 (0-24% control) | post-emergence herbicidal activity index (Lambsquarters; Table II, 4 WAT, 5.6 kg/h): 3 (75-99% control) | post-emergence herbicidal activity index (Johnsongrass; 4 WAT, 5.6 kg/h): 1 (25-49% control) | post-emergence herbicidal activity index (Johnsongrass; 4 WAT, 11.2 kg/h): 4 (100% control) | post-emergence herbicidal activity index (Smartweed; Table I, 4 WAT, 5.6 kg/h): 0 (0-24% control) | post-emergence herbicidal activity index (Smartweed; Table I, 4 WAT, 11.2 kg/h): 3 (75-99% control) | post-emergence herbicidal activity index (Smartweed; Table II, 2 WAT, 0.28 kg/h): 0 (0-24% control) | post-emergence herbicidal activity index (Smartweed; Table II, 4 WAT, 1.12 kg/h): 0 (0-24% control) | post-emergence herbicidal activity index (Smartweed; Table II, 4 WAT, 5.6 kg/h): 2 (50-74% control) | post-emergence herbicidal activity index (Sugar Beet; 2 WAT, 0.28 kg/h): 0 (0-24% control) | post-emergence herbicidal activity index (Sugar Beet; 4 WAT, 1.12 kg/h): 0 (0-24% control) | post-emergence herbicidal activity index (Sugar Beet; 4 WAT, 5.6 kg/h): 1 (25-49% control) | post-emergence herbicidal activity index (Wild Buckwheat; 2 WAT, 0.28 kg/h): 0 (0-24% control) | post-emergence herbicidal activity index (Wild Buckwheat; 4 WAT, 1.12 kg/h): 0 (0-24% control) | post-emergence herbicidal activity index (Wild Buckwheat; 4 WAT, 5.6 kg/h): 2 (50-74% control) | post-emergence herbicidal activity index (Yellow Nutsedge; 4 WAT, 5.6 kg/h): 2 (50-74% control) | post-emergence herbicidal activity index (Yellow Nutsedge; 4 WAT, 11.2 kg/h): 2 (50-74% control) | post-emergence herbicidal activity index (Wheat; 2 WAT, 0.28 kg/h): 0 (0-24% control) | post-emergence herbicidal activity index (Wheat; 4 WAT, 1.12 kg/h): 0 (0-24% control) | post-emergence herbicidal activity index (Wheat; 4 WAT, 5.6 kg/h): 1 (25-49% control) | post-emergence herbicidal activity index (Rice; 2 WAT, 0.28 kg/h): 0 (0-24% control) | post-emergence herbicidal activity index (Rice; 4 WAT, 1.12 kg/h): 0 (0-24% control) | post-emergence herbicidal activity index (Rice; 4 WAT, 5.6 kg/h): 0 (0-24% control) | post-emergence herbicidal activity index (Barnyardgrass; Table I, 4 WAT, 5.6 kg/h): 2 (50-74% control) | post-emergence herbicidal activity index (Barnyardgrass; Table I, 4 WAT, 11.2 kg/h): 2 (50-74% control) | post-emergence herbicidal activity index (Barnyardgrass; Table II, 2 WAT, 0.28 kg/h): 0 (0-24% control) | post-emergence herbicidal activity index (Barnyardgrass; Table II, 4 WAT, 1.12 kg/h): 0 (0-24% control) | post-emergence herbicidal activity index (Barnyardgrass; Table II, 4 WAT, 5.6 kg/h): 2 (50-74% control) | post-emergence herbicidal activity index (Downy Brome; Table I, 4 WAT, 5.6 kg/h): 0 (0-24% control) | post-emergence herbicidal activity index (Downy Brome; Table I, 4 WAT, 11.2 kg/h): 3 (75-99% control) | post-emergence herbicidal activity index (Downy Brome; Table II, 2 WAT, 0.28 kg/h): 0 (0-24% control) | post-emergence herbicidal activity index (Downy Brome; Table II, 4 WAT, 1.12 kg/h): 0 (0-24% control) | post-emergence herbicidal activity index (Downy Brome; Table II, 4 WAT, 5.6 kg/h): 2 (50-74% control)

N#CCN(CP(=O)(Oc1ccccc1)Oc1ccccc1)SSC1CCCCC1 [X, Phosphonic acid, [[(cyanomethyl)(cyclohexyldithio)amino]methyl]-, diphenyl ester]
post-emergence herbicidal activity index (Quackgrass; 2 WAT, 5.6 kg/h): 0 (0-24% control) | post-emergence herbicidal activity index (Quackgrass; 4 WAT, 11.2 kg/h): 0 (0-24% control) | post-emergence herbicidal activity index (Morningglory; Table I, 2 WAT, 5.6 kg/h): 0 (0-24% control) | post-emergence herbicidal activity index (Morningglory; Table I, 4 WAT, 11.2 kg/h): 1 (25-49% control) | post-emergence herbicidal activity index (Cocklebur; Table I, 2 WAT, 5.6 kg/h): 0 (0-24% control) | post-emergence herbicidal activity index (Cocklebur; Table I, 4 WAT, 11.2 kg/h): 2 (50-74% control) | post-emergence herbicidal activity index (Velvetleaf; Table I, 2 WAT, 5.6 kg/h): 1 (25-49% control) | post-emergence herbicidal activity index (Velvetleaf; Table I, 4 WAT, 11.2 kg/h): 1 (25-49% control) | post-emergence herbicidal activity index (Lambsquarters; Table I, 2 WAT, 5.6 kg/h): 3 (75-99% control) | post-emergence herbicidal activity index (Lambsquarters; Table I, 4 WAT, 11.2 kg/h): 3 (75-99% control) | post-emergence herbicidal activity index (Johnsongrass; 2 WAT, 5.6 kg/h): 0 (0-24% control) | post-emergence herbicidal activity index (Johnsongrass; 4 WAT, 11.2 kg/h): 1 (25-49% control) | post-emergence herbicidal activity index (Smartweed; Table I, 2 WAT, 5.6 kg/h): 0 (0-24% control) | post-emergence herbicidal activity index (Smartweed; Table I, 4 WAT, 11.2 kg/h): 0 (0-24% control) | post-emergence herbicidal activity index (Yellow Nutsedge; 2 WAT, 5.6 kg/h): 0 (0-24% control) | post-emergence herbicidal activity index (Yellow Nutsedge; 4 WAT, 11.2 kg/h): 0 (0-24% control) | post-emergence herbicidal activity index (Barnyardgrass; Table I, 2 WAT, 5.6 kg/h): 0 (0-24% control) | post-emergence herbicidal activity index (Barnyardgrass; Table I, 4 WAT, 11.2 kg/h): 1 (25-49% control) | post-emergence herbicidal activity index (Downy Brome; Table I, 2 WAT, 5.6 kg/h): 0 (0-24% control) | post-emergence herbicidal activity index (Downy Brome; Table I, 4 WAT, 11.2 kg/h): 1 (25-49% control)

Source: US4508663A, “Process for preparing thiosulfenamide derivatives of N-phosphonomethylglycinonitriles” (Monsanto Company, priority 1983, dated 1985)
